US11072811B2, “Substrates for covalent tethering of proteins to functional groups or solid surfaces” (PROMEGA CORPORATION, priority 2013, dated 2021)
“Also recorded” adds a separate entry of the source.

Tests used:
[1] = target: T1, glucocorticoid receptor (GR) (Homo sapiens, UniProt P04150); test: Glucocorticoid receptor competitor assay (fluorescence polarization); format: binding; conditions: dexamethasone-chloroalkane conjugates; FIG. 7
T1 construct: purchased Life Technology
T1 sequence (P04150 1-777): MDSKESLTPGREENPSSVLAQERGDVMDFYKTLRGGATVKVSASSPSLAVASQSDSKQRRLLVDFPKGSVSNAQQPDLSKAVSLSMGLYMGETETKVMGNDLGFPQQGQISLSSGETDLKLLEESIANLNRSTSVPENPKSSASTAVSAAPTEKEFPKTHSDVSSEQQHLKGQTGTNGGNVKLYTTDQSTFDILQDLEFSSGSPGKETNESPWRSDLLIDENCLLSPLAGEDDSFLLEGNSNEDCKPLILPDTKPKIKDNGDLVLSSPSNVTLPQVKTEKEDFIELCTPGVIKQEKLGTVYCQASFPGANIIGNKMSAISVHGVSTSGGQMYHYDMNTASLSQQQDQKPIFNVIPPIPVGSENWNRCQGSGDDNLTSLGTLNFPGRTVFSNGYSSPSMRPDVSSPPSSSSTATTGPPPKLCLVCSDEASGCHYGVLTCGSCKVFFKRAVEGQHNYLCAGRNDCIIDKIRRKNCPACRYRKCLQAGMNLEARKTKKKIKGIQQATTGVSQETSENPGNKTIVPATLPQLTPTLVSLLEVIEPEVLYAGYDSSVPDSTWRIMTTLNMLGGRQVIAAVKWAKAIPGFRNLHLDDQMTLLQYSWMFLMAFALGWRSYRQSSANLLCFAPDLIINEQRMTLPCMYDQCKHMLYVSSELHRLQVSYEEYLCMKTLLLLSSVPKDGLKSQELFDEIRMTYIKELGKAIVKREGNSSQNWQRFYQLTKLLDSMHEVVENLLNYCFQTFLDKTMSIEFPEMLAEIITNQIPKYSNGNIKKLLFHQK
Source text: c) Binding efficiency to the target glucocorticoid receptor (GR) was done using the glucocorticoid receptor competitor assay (Life Technology) as recommended by the manufacturer.

[2] = tested on: HaloTag® protein; test: Binding efficiency to HaloTag protein in lysate (chase with fluorescent HaloTag ligand, SDS-PAGE); conditions: 1 μM, 0-60 min binding; for labeling kinetics / binding efficiency to HaloTag protein in lysate: methotrexate-chloroalkane conjugates, FIG. 3A
Method: (§1) a) Binding efficiency to HaloTag® protein in lysate was measured by adding the methotrexate-chloroalkane conjugates to lysate from cells expressing a HaloTag® protein to a final concentration of 1 μM. Following 0-60 mins of binding, the reactions were chased with 1 μM fluorescent HaloTag® ligand. Unbound HaloTag® protein was detected through binding to the fluorescent HaloTag® ligand followed by analysis on SDS-PAGE gel and detection on a fluorescent gel scanner.
as §1, with “adding the dexamethasone-chloroalkane conjugates to” for “adding the methotrexate-chloroalkane conjugates to”, “the fluorescent HaloTag ligand followed” for “the fluorescent HaloTag® ligand followed”

[3] = target: T2, NanoLuc-DHFR fusion protein (Homo sapiens, UniProt P00374); test: Pull-down of NanoLuc-DHFR fusion from living cells onto HALOTAG protein beads; format: cell-based; conditions: HEK293 cells, 10 uM conjugate, 2 h binding, 45 min capture, release with 150 μM methotrexate; FIG. 4
T2 construct: expressed in transfected cells; host or cells: HEK293
T2 sequence (P00374 1-187): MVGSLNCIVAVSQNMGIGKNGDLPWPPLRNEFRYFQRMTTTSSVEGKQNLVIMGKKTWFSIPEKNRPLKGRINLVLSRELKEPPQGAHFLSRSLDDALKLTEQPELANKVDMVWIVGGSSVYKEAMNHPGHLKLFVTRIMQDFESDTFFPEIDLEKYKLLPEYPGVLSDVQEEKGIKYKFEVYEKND
Method: HEK293 cells were plated and transfected using PEI with plasmid DNA encoding a NANOLUC-DHFR fusion in wells of a 96-well plate. The DNA was diluted 1:50 with a promoterless carrier DNA plasmid (pCI) to a final concentration of 80 ng total DNA per well. Twenty-four hours post-transfection, cells were serum starved for additional 24 hours and then treated with […] 10 uM PBI-4848 or PBI-5015 while control cells were not treated with the conjugated drug. Following equilibration binding of 2 h, the media was removed, and the cells quickly washed with PBS and lysed in detergent-based lysis buffer for 10 min. Cell lysates were then transferred to wells of a 96-well plate containing 0.5 μl settled paramagnetic HALOTAG protein beads and incubated with shaking for 45 min. Following binding, the unbound fraction was removed, the HALOTAG protein paramagnetic beads washed, 150 μM unconjugated methotrexate added, and the captured NANOLUC:DHFR specifically released from the beads by competition with the unconjugated methotrexate for 60 min. The released NANOLUC:DHFR (+PBI-5015 or +PBI-4848) and control samples were detected by NANOGLO luciferase detection reagent.

[4] = tested on: HaloTag® protein; test: Binding efficiency to HaloTag protein in cells (chase with fluorescent HaloTag ligand, SDS-PAGE); format: cell-based; conditions: 10 μM
Method: b) Binding efficiency to HaloTag® protein in cells was measured by adding the methotrexate-chloroalkane conjugates to cells expressing a HaloTag® protein to a final concentration of 10 μM. Following 0-120 mins of binding, the reactions were chased with 5 μM fluorescent HaloTag® ligand. Unbound HaloTag® protein was detected through binding to the fluorescent HaloTag® ligand followed by cell lysis, analysis on a SDS-PAGE gel and detection on a fluorescent gel scanner.
b) Binding efficiency to HaloTag® protein in cells was measured by adding the dexamethasone-chloroalkane conjugates to cells expressing a HaloTag® protein to a final concentration of 10 μM. Following 0-60 mins of binding, the reaction was chased with 5 μM fluorescent HaloTag ligand. Unbound HaloTag® protein was detected through binding to the fluorescent HaloTag® ligand followed by cell lysis, analysis on SDS-PAGE gel and detection on a fluorescent gel scanner.

[5] = target: T3, NanoLuc:GR fusion (Homo sapiens, UniProt P04150); test: Pull-down of NanoLuc:GR fusion from live cells onto HaloTag protein beads; format: cell-based; conditions: HEK293 cells, 10 μM conjugate, 2 h binding, 45 min capture, release with 150 μM Dexamethasone; FIG. 8
T3 construct: expressed in transfected cells; host or cells: HEK293
T3 sequence (P04150 1-777): T1 sequence (P04150 1-777)
Method: HEK293 cells were plated and transfected using PEI with plasmid DNA encoding NanoLuc:GR fusion in wells of a 96-well plate. The DNA was diluted 1:50 with a promoterless carrier DNA plasmid (pCI neo) to a final concentration of 80 ng total DNA per well. Twenty-four hours post-transfection, cells were serum starved for additional 24 hours then incubated with a final concentration of 10 μM PBI-4980 or PBI-4025 while control cells were not treated with the conjugated drug. […] The released NanoLuc:GR (+PBI-4980 or +PBI-4025) and control samples were detected by using the NanoGlo® assay reagent (Promega Corp).

[6] = methotrexate-chloroalkane conjugates, 0-120 min binding, FIG. 3B

SMILES | affinity / binding efficiency to glucocorticoid receptor [1] | labeling kinetics / binding efficiency to HaloTag protein in lysate [2] | pull-down of Nluc:DHFR fusion from living cells [3] | cell permeability/binding efficiency to HaloTag protein in cells [4, 6] | binding kinetics to HaloTag protein in lysate ([2]; dexamethasone-chloroalkane conjugates, FIG. 6A) | cell permeability/binding efficiency to HaloTag protein in cells ([4]; dexamethasone-chloroalkane conjugates, 0-60 min binding, FIG. 6B) | efficiency of Nluc:GR fusion pull down from live cells [5]
C[C@@H]1CC2C3CCC4=CC(=O)C=C[C@]4(C)[C@@]3(F)[C@@H](O)C[C@]2(C)[C@@]1(O)C(=O)NCCOCCOCCOCCOCCC(=O)NCCOCCOCCCCCCCl (some centres unmarked) [PBI-4025] | highest affinity; also recorded: best binding efficiency; also recorded: higher affinity | – | – | – | – | – | –
CN(Cc1cnc2nc(N)nc(N)c2n1)c1ccc(C(=O)NC(CCC(=O)NCCOCCOCCCCCCCl)C(=O)O)cc1 (centres unmarked) [PBI-4848] | – | fast labeling kinetics | only PBI-5015 efficiently pulled down | best cell permeability/binding efficiency; also recorded: higher cell permeability | – | – | –
C[C@@H]1CC2[C@@H]3CCC4=CC(=O)C=C[C@]4(C)[C@@]3(F)[C@@H](O)C[C@]2(C)[C@@]1(O)C(=O)NCCCCCNC(=O)OCCOCCOCCOC(=O)NCCOCCOCCCCCCCl (some centres unmarked) [PBI-4980, Dexamethasone Carbamate Chloroalkane] | best binding efficiency | – | – | – | faster binding kinetics | best cell permeability/binding efficiency | significantly higher than via PBI-4025
CN(Cc1cnc2nc(N)nc(N)c2n1)c1ccc(C(=O)NC(CCC(=O)NCCCCCNC(=O)OCCOCCOCCOC(=O)NCCOCCOCCCCCCCl)C(=O)O)cc1 (centres unmarked) [PBI-5015] | – | fast labeling kinetics | efficiently pulled down | good cell permeability and binding efficiency | – | – | –
